Like-named read-outs stand apart in the source and are kept apart here.
What was measured:
NQO1 = assay: NADPH quinone oxido reductase (NQO1) activity assay in RL-34 cell lysate after treatment; type: cell-based, rat; settings: RL-34 cell line
HMOX1 = settings: for HMOX1 gene expression increased over DMSO control: text summary of Table 7
GST = GST activity assay in RL-34 cell lysate after treatment; type: cell-based, rat; settings: RL-34 cell line
GSTA1 and NQO1 = settings: for phase II gene expression increased over DMSO control: text summary of Table 7
[1] = tested on: metallothionein (hMT1&2 and hMT1&2alt); settings: for MT gene expression increased over DMSO control: text summary of Table 7
[2] = tested on: heme oxygenase (HO-1) promoter; assay: heme oxygenase (HO-1) luciferase reporter in the HepG2 cell line; settings: thirty percent induction over DMSO control is considered as active
Nrf-2 = assay: Western blot of Nrf-2 in the nuclear fraction of HepG2 cells; type: cell-based, human; settings: 4 hours, FIGS. 3 and 4
Method: The HepG2 cell line was cultured as above and test compounds were added for four hours, after which the cells were lysed and the nuclear fraction was isolated (Dignam, J. D., R. M. Lebovitz, and R. G. Roeder, Nucleic Acids Res, 11(5): 1475-89, 1983). Total protein concentration was determined using the Bicinchoninic Acid Kit (Sigma). […] (60 μg total protein) were electrophoresed and detection of Nrf-2 was performed using primary antibody incubation overnight at 4° C. (Santa Cruz Biotechnology, Inc, Santa Cruz, Calif.). Secondary antibody linked to horseradish peroxidase was incubated for one h (GE Healthcare, Piscataway, N.J.), after which proteins were visualized using the enhanced chemiluminescence (ECL) system. Densitometry was performed using Kodak Molecular Imaging Software v.4.0 (Eastman Kodak Company, Rochester, N.Y.) measuring the net intensity of the band.

Which “NQO1 enzymatic activity induced over DMSO control” value (NQO1; 25 μg/ml) does the source give for `C=C1CC[C@@H]2[C@](C)(CO)[C@H](O)CC[C@@]2(C)[C@@H]1C/C=C1/C(=O)OC[C@H]1O` [Andrographis, 3-(2-(Decahydro-6-hydroxy-5-(hydroxymethyl)-5,8a-dimethyl-2-methylenenaphthyl)ethylidene)dihydro-4-hydroxyfuran-2(3H)-one] here?
Its value is no less than 20%.

What about the “HMOX1 gene expression increased over DMSO control” value (from here on “HMOX1 gene expression increased”) (HMOX1; HepG2 cells) of the same compound?
Its value is no less than 20%.

What about the “GST activity induced over DMSO control” value (GST; 25 μg/ml) of the same compound?
The value was no less than 20%.

And the “phase II gene expression increased over DMSO control” value (GSTA1 and NQO1; HepG2 cells)?
Its value is no less than 20%.

How did the “NQO1 enzymatic activity induced over DMSO control” value (NQO1; 20 μg/ml) turn out when `COc1ccc2cc3[n+](cc2c1OC)CCc1cc2c(cc1-3)OCO2` [Berberine] was run?
Its value is no less than 20%.

How did the “NQO1 enzymatic activity induced over DMSO control” value (NQO1; 20 μg/ml) turn out when `O=c1c(-c2ccc(O)cc2)coc2cc(O)cc(O)c12` [Bonistein] was run?
The value was no less than 20%.

With `[Cl][Cd][Cl]` [CdCl2] as the compound, how does the “MT gene induction (in words)” value ([1]; HepG2 cells, controls) read?
The value was “induce”.

What about the “HMOX1 gene induction (in words)” value (HMOX1; HepG2 cells, controls) of the same compound?
The value was “induce”.

What about the “Phase II (ave) Ratio to DMSO” value (GSTA1 and NQO1; HepG2 cells, 8 hours, 40 uM, average of GSTA1 and NQO1) of the same compound?
The value was 0.94.

What about the “phase II gene induction (in words)” value (GSTA1 and NQO1; HepG2 cells, controls) of the same compound?
Its value is “unable to increase”.

Which “NQO1 enzymatic activity induced over DMSO control” value (NQO1; 5 μg/ml) does the source give for `COc1cc(C=CC(=O)CC(=O)C=Cc2ccc(O)c(OC)c2)ccc1O` [Curcumin, 1,7-Bis(4-hydroxy-3-methoxyphenyl)hepta-1,6-diene-3,5-dione] here?
Its value is no less than 20%.

And the “HMOX1 gene expression increased” value (HMOX1; HepG2 cells)?
Its value is no less than 20%.

And the “phase II gene expression increased over DMSO control” value (GSTA1 and NQO1; HepG2 cells)?
Its value is no less than 20%.

What about the “expression of heme oxygenase promoter activity (in words)” value (“expression … (in words)” below) [2] of the same compound?
Its value is “induced”.

Which “NQO1 enzymatic activity induced over DMSO control” value (NQO1; 25 μg/ml) does the source give for `c1ccc2c(Cc3c[nH]c4ccccc34)c[nH]c2c1` [DIM] here?
The value was no less than 20%.

With `OCc1c[nH]c2ccccc12` [I3C] as the compound, how does the “NQO1 enzymatic activity induced over DMSO control” value (NQO1; 25 μg/ml) read?
Its value is no less than 20%.

What does the source list for `CC1(C)CC[C@]2(C(=O)O)CC[C@]3(C)C(=CC[C@@H]4[C@@]5(C)CC[C@H](O)C(C)(C)[C@@H]5CC[C@]43C)[C@@H]2C1` [Oleanolic acid]?
MT gene expression increased over DMSO control ([1]; HepG2 cells): ≥ 20%; NQO1 enzymatic activity induced over DMSO control (NQO1; 25 μg/ml): ≥ 20%; expression of heme oxygenase promoter activity (in words) [2]: induced

With `C=C1C(=O)O[C@H]2[C@H]1CC/C(C)=C/CC[C@@]1(C)O[C@@H]21` [Parthenolide] as the compound, how does the “NQO1 enzymatic activity induced over DMSO control” value (NQO1; 20 μg/ml) read?
Its value is no less than 20%.

With `O=c1c(O)c(-c2ccc(O)c(O)c2)oc2cc(O)cc(O)c12` [Quercitin] as the compound, how does the “NQO1 enzymatic activity induced over DMSO control” value (NQO1; 20 μg/ml) read?
Its value is no less than 20%.

With `Oc1ccc(C=Cc2cc(O)cc(O)c2)cc1` [Resveratrol] as the compound, how does the “NQO1 enzymatic activity induced over DMSO control” value (NQO1; 20 μg/ml) read?
The value was no less than 20%.

For `C[S+]([O-])CCCCN=C=S` (stereo not shown) [Sulforaphane], which “MT 1.2 (ave) Ratio to DMSO” value [1] is on record?
Its value is 0.87.

What about the “MT gene induction (in words)” value [1] of the same compound?
The value was “but not MT”.

What about the “Nrf-2 nuclear translocation (in words)” value (Nrf-2) of the same compound?
The value was “dramatic increase”.

And the “NQO1 enzymatic activity induced over DMSO control” value (NQO1; 3 μg/ml)?
Its value is no less than 20%.

What about the “HMOX1 gene induction (in words)” value (HMOX1) of the same compound?
Its value is “increased”.

What about the “GST activity induced over DMSO control” value (GST; 3 μg/ml) of the same compound?
The value was no less than 20%.

And the “Phase II (ave) Ratio to DMSO” value (GSTA1 and NQO1)?
The value was 1.64.

What about the “phase II gene induction (in words)” value (GSTA1 and NQO1) of the same compound?
Its value is “increased”.

And the “expression … (in words)” value [2]?
The value was “induced”.

For `O=c1oc2c(O)c3oc(=O)c4c5c(oc(=O)c6cc(O)c(O)c(O)c65)c(O)c5oc(=O)c(c2c2c(O)c(O)c(O)cc12)c3c54` [Terminalin], which “expression … (in words)” value [2] is on record?
Its value is “induced”.

How did the “MT gene expression increased over DMSO control” value ([1]; HepG2 cells) turn out when `COc1cc(O)c(CC=C(C)C)c(O)c1C(=O)/C=C/c1ccc(O)cc1` [Xanthohumol] was run?
Its value is no less than 20%.

And the “NQO1 enzymatic activity induced over DMSO control” value (NQO1; 1 μg/ml)?
Its value is no less than 20%.

What about the “HMOX1 gene expression increased” value (HMOX1; HepG2 cells) of the same compound?
Its value is no less than 20%.

And the “GST activity induced over DMSO control” value (GST; 1 μg/ml)?
Its value is no less than 20%.

What about the “expression … (in words)” value [2] of the same compound?
Its value is “induced”.

Which results are given for `[Cl-].[Cl-].[Zn+2]` [ZnCl2]?
Phase II (ave) Ratio to DMSO (GSTA1 and NQO1; HepG2 cells, 8 hours, 10 μg/ml, average of GSTA1 and NQO1): 0.94; expression of heme oxygenase promoter activity (in words) [2]: induced

Which “NQO1 enzymatic activity induced over DMSO control” value (NQO1; 25 μg/ml) does the source give for `O=C(/C=C/c1ccc(O)c(O)c1)O[C@@H]1C[C@](O)(C(=O)O)C[C@@H](O)[C@H]1O` [chlorogenic acid] here?
The value was no less than 20%.

From US8475850B2, “Methods and compositions for heavy metal detoxification” (priority 2007, dated 2013)
